The values that follow come from publication PMC10862539, “Chelation of Mitochondrial Iron as an Antiparasitic Strategy” (ACS Infectious Diseases, 2024).

“And” between values parts separate entries of the source, which are not always exact repeats. Identical values can stand only once.

The test system of experiment [1] is Babesia gibsoni. Details: method as in PMID 18771856. To be noted: B. gibsoni; ref [40]; cited from earlier work.
For experiment [2], the system named is T. brucei 427 bloodstream form. Put plainly: Reactive oxygen species determination (H2DCFDA, flow cytometry). The format is cell-based, Trypanosoma brucei. To be noted: twice the EC50 value (0.12 μM), 24 h. The protocol: T. brucei 427 bloodstream form’s cellular ROS production was assessed using H2DCFDA (Sigma-Aldrich). Cells were preincubated for 24 h with 0.12 μM mitoDFO, and approximately 1 × 10^6 cells were incubated with 10 μM H2DCFDA for 30 min and washed with PBS with 6 mM glucose, and 10 000 events were measured on a Guava EasyCyte 8HT flow cytometer (Luminex) using a 488 excitation laser and a 525/30 detector. Median fluorescence was plotted against untreated culture using Prism 8.0 (GraphPad Software), and statistical significance was determined using a two-tailed paired t-test. The experiment was performed in three biologically independent replicates.

For experiment [3], the system named is T. brucei 427 bloodstream form. Put plainly: Mitochondrial membrane potential (TMRE, flow cytometry). Type of experiment: cell-based, Trypanosoma brucei. On the set-up: dose or concentration left out as unconfirmed. To be noted: 0.12, 0.3, and mitoDFO for 24 h. The protocol:
T. brucei 427 bloodstream form’s mitochondrial membrane potential was assessed using the fluorescent probe TMRE (Thermo Fisher Scientific). […] Approximately 1 × 10^6 cells were incubated with 60 nM TMRE for 30 min and washed with PBS with 6 mM glucose, and 10 000 events were measured on a Guava EasyCyte 8HT flow cytometer (Luminex) using a 488 excitation laser and a 583/26 detector. Median fluorescence was plotted against untreated culture using Prism 8.0 (GraphPad Software), and statistical significance was determined using RM one-way ANOVA with Geisser-Greenhouse correction. The experiment was performed in three biologically independent replicates.
Background: Flow cytometry measures light scatter and fluorescence of single cells or particles in a stream.

In experiment [4] the target is isolated mitochondria of T. brucei 427. In words: Mitochondrial membrane intactness in isolated mitochondria (threonine dehydrogenase marker). Details: species or system Trypanosoma brucei. To be noted: threonine dehydrogenase activity as marker, read-out: 50% membrane intactness (inner membrane permeability increased by 50%). As to the method: Mitochondrial intactness was assessed by isolating the mitochondrial fraction of untreated cells, as described above, without the addition of Triton X-100 and adding different concentrations of mitoDFO. Threonine dehydrogenase activity was measured as a marker of the disintegration of mitochondrial membranes. Triton X-100 was used to disrupt membrane integrity and served as a positive control to obtain maximum activity. All experiments were performed in at least three biologically independent replicates and plotted and analyzed using Prism 8.0 (GraphPad Software).

Experiment [5] relates to Cryptococcus neoformans. Put plainly: C. neoformans capsule size (India ink microscopy). The format is cell-based. To be noted: 20 μM mitoDFO for 24 h; 31 cells. As to the method: C. neoformans capsule thickness was measured using a previously published protocol.[33] Briefly, the yeast was seeded in 1 mL of RPMI in a 24 well plate with and without a final concentration of 20 μM mitoDFO for 24 h at 35 °C. The culture was harvested (1300 g, 5 min, RT) and resuspended in 50 μL of RPMI. An equal amount of India Ink (Thermo-Fisher) was added, and a total volume of 15 μL of resuspended cells was placed on a microscope slide, covered with cover glass, and imaged on an Eclipse TI-S (Nikon) inverted microscope using 100× magnification. A total of 31 cells were randomly selected, excluding morphologically anomalous and overlapping cells. Using NIS Elements BR (Nikon), the inner and outer diameters of each cell were measured, and cell size and capsule thickness were calculated. Graphs were plotted, and an unpaired t-test was performed using Prism 8.0 (GraphPad Software).

For `CC(=O)N(O)CCCCCNC(=O)CCC(=O)N(O)CCCCCNC(=O)CCC(=O)N(O)CCCCCN` [DFO, Deferoxamine, reference compound], the EC50 in experiment [1] is 6.45 ± 3.43 µM.

Regarding `CC(=O)N(O)CCCCCNC(=O)CCC(=O)N(O)CCCCCNC(=O)CCC(=O)N(O)CCCCCN(CCCCCCCCCC[P+](c1ccccc1)(c1ccccc1)c1ccccc1)CCCCCCCCCC[P+](c1ccccc1)(c1ccccc1)c1ccccc1` [mitoDFO], the “increase in the presence of ROS compared to the culture without treatment” value in experiment [2] is reported as “approximately 3.5 fold”. Besides, the mitochondrial membrane potential entry in experiment [3] is given as “rapidly reduced in a dose-dependent manner”. Besides, in experiment [4], the EC50 is 63.2 µM and 63 µM. In addition, in experiment [5], the capsule thickness entry was “increases significantly” and the overall cell size result is recorded as “remains the same”.
